{
  "source": "patent US20230043678A1",
  "about": "“USE OF 5-METHYLTETRAHYDROFOLATE” (priority 2019, published 2023)",
  "key": {"heart of fetal mice": {"test_system": "heart of fetal mice", "test": "Effects of folic acid and 5-methyltetrahydrofolate on heart development of fetal/neonatal mice, histology (Example 10)", "conditions": "mouse, in vivo", "description": "(§1) 75 7-week-old female C57BL/6J mice and 25 8-week-old male C57BL/6J mice were provided by Shanghai Lingchang Biotechnology Co., Ltd. with a certificate number of SCXK (Shanghai) 2018-0003. […] The female mice were randomly divided into 5 groups according to body weight: a solvent control group, a folic acid (151.66 μg/kg) group, a folic acid (303.32 μg/kg) group, a calcium 5-methyltetrahydrofolate (converted to folic acid, 151.66 μg/kg) group and a calcium 5-methyl tetrahydrofolate (converted to folic acid, 303.32 μg/kg) group. 1.1275 unit mass of the calcium 5-methyltetrahydrofolate equaled to 1 unit mass of the folic acid.\n(§2) 15 mice were in each group and numbered by a toe clipping method. The mice were intragastrically administrated once a day on the second day after grouping. One week after the pre-administration, male and female mice were caged at a ratio of […], a vaginal plug was observed every day from the next day, and a day when the vaginal plug was seen was recorded as day 0.5 of pregnancy. After 14 days of caging, the female mice stopped the administration, the male mice were removed, and the pregnant female mice were fed alone until litter.\nAfter the detection, thoracic and abdominal cavities of the mice were dissected, cardiac morphology and beating were observed under a stereoscopic microscope (SMZ168, Motic, Xiamen, Fujian, China), and photographs and video recordings were taken (Motic Image Plus 3.0, Motic, Xiamen, Fujian, China). The mice were sacrificed and the hearts, the livers, the kidneys and the lungs were harvested. The hearts and the livers of the neonatal mice were selected from each group and fixed with 4% paraformaldehyde, the fixed hearts and livers were embedded in paraffin, the embedded hearts and livers were sliced and the slices were stained with H&E. A half of the other tissues were immersed in RNA later for fixation and the other half were directly immersed in liquid nitrogen and frozen for a subsequent experiment.\n1-day-old neonatal mice were sacrificed, the hearts were taken and fixed with 4% paraformaldehyde, the fixed hearts were embedded in paraffin, the embedded hearts were sliced, the slices were stained with H&E and pictures were taken under a normal microscope."}, "[1]": {"test_system": "transcription factors (Nkx2.5, amhc, vmhc, hand2, has2, mef2a, mef2c, bmp2b, ephrinB2, ephB4) in zebrafish embryos", "test": "qRT-PCR expression of transcription factors during development of zebrafish embryos (Example 4)", "format": "in vivo", "conditions": "8 mM FA", "description": "In order to explore an effect of folic acid on epigenetics during development of the zebrafish embryos, the zebrafish embryos at different developmental stages were collected for testing. […] A fluorescent dye SYBR Green was used in the qRT-PCR experiment. The qRT-PCR was conducted according to the instructions of an SYBR Green qPCR Master Mix kit and a detection was conducted on an ABI (HT 7900) PCR instrument. […] An expression of β-actin was used as an internal reference and relative expression levels of other genes were calculated by a ΔΔCt method."}, "zebrafish embryos": {"test_system": "zebrafish embryos", "test": "Teratogenic effect of folic acid on zebrafish embryos (Example 3)", "conditions": "for embryo coverage: 8 hpf", "quoted_text": "Transgenic zebrafish (fli-1:EGFP) were from the Model Animal Research Center of Nanjing University. Adult zebrafish aged less than 1 were used for experiment and fed at a water pH value of 7±0.2, a temperature around 28° C. and a ratio of illumination to darkness of 14 h:10 h, and with Artemia salina eggs twice a day. Three zebrafish, one female, two males, were placed in a spawning box the night before and eggs were collected the next morning. Fish eggs were placed in an embryo culture medium (prepared with 0.2 g/L of sea salt) and cultured at 28° C. […] Dead embryos were cleaned up in time. A phenotype of malformation was observed, the number of all abnormal zebrafish where the malformation was present was recorded and a malformation rate and a rescue rate of each group were calculated. Morphological defects, a heart rate, cardiac morphology and other indicators were observed and evaluated by an SMZ745T inverted stereomicroscope."}, "[2]": {"test_system": "congenital heart defects in offspring", "conditions": "cited from earlier work"}, "heart of neonatal mice": {"test_system": "heart of neonatal mice", "conditions": "mouse, in vivo", "description": "as §1, §2\nIn addition, 4-5 mice were randomly selected from each group and the 6-day-old small animals were subjected to cardiac echocardiography (Vevo 2100 Imaging System, VisualSonics, Toronto, ON, Canada)."}, "fetal rat heart": {"test_system": "fetal rat heart", "test": "Effect of high-dose folic acid on fetal rat heart, histopathology (Example 8)", "format": "in vivo, SD rats", "conditions": "for Development delay / Malformation cases / Malformation rate / Sparse myocardial trabeculae / Ventricular defects/septal defects: fetal rats", "description": "28 each of female and male adult healthy SD rats, weighing about 200-250 g, were purchased from SPF (Beijing) biotechnology co., LTD. After all animals were purchased, general physiological indicators, body weight and feeding of the animals were observed. The animals were adaptively fed for one week. […] The animals were fed day and night in natural lighting, and at a room temperature of 18-26° C. and a relative humidity of 40%-70%.\nThe obtained 16 pregnant mice were randomly divided into 4 groups with 4 rats in each group according to body weight: a normal group, a high-dose folic acid group, a middle-dose folic acid group and a low-dose folic acid group. The high-dose folic acid (36.44 mg/kg) group, the middle-dose folic acid (18.22 mg/kg) group, the low-dose folic acid (9.11 mg/kg) group and a blank control group were separately set. The pregnant mice were intragastrically administrated with a 1 ml/100 g solution. The pregnant mice were given pure water in the normal group. The pregnant mice in the other groups started to be administrated on the 2nd day after grouping once a day for 21 consecutive days. The pregnant mice in each group freely ate and drunk. After the female rats were administrated for 7 days, male and female rats were mated in a cage at a ratio of 1:1 overnight, a vaginal plug was checked the next morning, a day when the vaginal plug was found was regarded as day 0 of pregnancy, the pregnant mice were separately fed and administrated for 21 consecutive days, and a fetus was obtained by cesarean section.\nRoutine histopathologic paraffin sample preparation, serial section (a thickness of 5 μm) and HE staining were conducted. Sample preparation: routine histopathologic paraffin sample sections were prepared and each sample was 1 paraffin block; and section: each numbered sample had 20 sections. A starting point of mounting was when the paraffin block was sliced, there were ventricular mounting slices and 4 consecutive tissue points were mounted on each glass slide on average. HE staining: there were 20 glass slides for each sample and every other 1 slide was taken for HE staining, a total of 10 slides. Observation and analysis: Leica panoramic image acquisition and comparative analysis were conducted. Fetal rat hearts were dissected and sliced for observation, and the results were as follows."}, "[3]": {"conditions": "folic acid 9.11 mg/kg intragastric"}, "[4]": {"conditions": "folic acid 18.22 mg/kg intragastric"}, "[5]": {"conditions": "folic acid 36.44 mg/kg intragastric"}},
  "data": [
    {"smiles": "Nc1nc2ncc(CNc3ccc(C(=O)N[C@@H](CCC(=O)O)C(=O)O)cc3)nc2c(=O)[nH]1", "note": "[FA, pteroylglutamic acid]", "values": [
      {"measurement": "heart slices (H&E) of 1-day-old neonatal mice", "setting": "heart of fetal mice", "result": "A small block of a heart wall was defective"},
      {"measurement": "expression of bmp2b gene", "setting": "[1]; 24 hpf", "result": "decreased an expression of a bmp2b gene"},
      {"measurement": "expression of mef2c gene", "setting": "[1]; 24 hpf", "result": "increased an expression of a mef2c gene"},
      {"measurement": "expression of ephb4 gene", "setting": "[1]; 48 hpf", "result": "inhibited"},
      {"measurement": "expression of has2 gene", "setting": "[1]; 48 hpf", "result": "inhibited"},
      {"measurement": "expression of mef2c gene", "setting": "[1]; 48 hpf", "result": "inhibited"},
      {"measurement": "expression of vmhc gene", "setting": "[1]; 48 hpf", "result": "increased an expression of a vmhc gene"},
      {"measurement": "embryo coverage", "setting": "zebrafish embryos; 2 mM FA", "result": "covered completely"},
      {"measurement": "heart shape and lower intestinal network blood vessels", "setting": "zebrafish embryos; 2 mM FA, 72 hpf", "result": "normal heart shape and normal development of lower intestinal network blood vessels"},
      {"measurement": "heart shape and lower intestinal network blood vessels", "setting": "zebrafish embryos; FA 4 mM or above, 72 hpf", "result": "pericardium edema malformations, atrial and ventricular elongation and developmental disorders of lower intestinal network blood vessels"},
      {"measurement": "embryo coverage", "setting": "zebrafish embryos; FA groups of other concentrations (4-10 mM)", "result": "not covered completely"},
      {"measurement": "survival rate of embryos", "setting": "zebrafish embryos; all FA groups (2, 4, 6, 8, 10 mM)", "result": "low survival rate of embryos"},
      {"measurement": "body length of embryos", "setting": "zebrafish embryos; folic acid 8 mM, 72 hpf", "result": "significantly shortened the body length of the embryos"},
      {"measurement": "embryo morphology", "setting": "zebrafish embryos; folic acid, 24 hpf", "result": "developmental malformation of heads and tails of the embryos"},
      {"measurement": "embryonic heart rate", "setting": "zebrafish embryos; folic acid, especially at 48 hpf", "result": "affected an embryonic heart rate"},
      {"measurement": "reduction of risk of CHD", "setting": "[2]; folic acid supplementation, hospital case-control studies in Guangdong, Hubei, Fujian and Shanxi", "result": 65, "unit": "%"},
      {"measurement": "lower risk of giving birth to infants with heart defects", "setting": "[2]; women taking folic acid, case-control study, north of the Netherlands", "result": "approximately 20%"},
      {"measurement": "left ventricular internal diameter end-diastole (LVID(d))", "setting": "heart of neonatal mice", "result": "significantly lower than those of other groups"},
      {"measurement": "left ventricular internal diameter end-systole (LVID(s))", "setting": "heart of neonatal mice", "result": "significantly lower than those of other groups"},
      {"measurement": "Development delay", "setting": "fetal rat heart; [3]", "result": 1},
      {"measurement": "Malformation cases", "setting": "fetal rat heart; [3]", "result": 3},
      {"measurement": "Malformation rate", "setting": "fetal rat heart; [3]", "result": 10.7, "unit": "%"},
      {"measurement": "Sparse myocardial trabeculae", "setting": "fetal rat heart; [3]", "result": 1},
      {"measurement": "Ventricular defects/septal defects", "setting": "fetal rat heart; [3]", "result": 3},
      {"measurement": "Development delay", "setting": "fetal rat heart; [4]", "result": 1},
      {"measurement": "Malformation cases", "setting": "fetal rat heart; [4]", "result": 4},
      {"measurement": "Malformation rate", "setting": "fetal rat heart; [4]", "result": 15.4, "unit": "%"},
      {"measurement": "Sparse myocardial trabeculae", "setting": "fetal rat heart; [4]", "result": 2},
      {"measurement": "Ventricular defects/septal defects", "setting": "fetal rat heart; [4]", "result": 2},
      {"measurement": "Development delay", "setting": "fetal rat heart; [5]", "result": 3},
      {"measurement": "Malformation cases", "setting": "fetal rat heart; [5]", "result": 4},
      {"measurement": "Malformation rate", "setting": "fetal rat heart; [5]", "result": 25, "unit": "%"},
      {"measurement": "Sparse myocardial trabeculae", "setting": "fetal rat heart; [5]", "result": 1},
      {"measurement": "Ventricular defects/septal defects", "setting": "fetal rat heart; [5]", "result": 4},
      {"measurement": "litter rate of rats", "setting": "fetal rat heart; folic acid, high dose", "result": "reduce the litter rate under a high dose"},
      {"measurement": "ventricular septum disappeared (number of animals)", "setting": "fetal rat heart; high-dose folic acid group 36.44 mg/kg", "result": 1}
    ]}
  ]
}
